Measured values from EP1611148B1, “NOVEL NITRILE GLYCOSIDE USEFUL AS A BIO-ENHANCER OF DRUGS AND NUTRIENTS, PROCESS OF ITS ISOLATION FROM MORINGA OLEIFERA” (Council of Scientific and Industrial Research, priority 2003, dated 2004).

Columns and labels:
[1] = anaesthetized rat, 1-10 mg/ kg I.V; cited from earlier work
[2] = system: Escherichia coli, CA 8000; assay: Enhancement of adsorption of λ phage on bacteria; conditions: cells pretreated with niaziridin @ 1 ug/ml
Experimental: Overnight grown bacterial culture (Escherichia coli, CA 8000) was divided into 5 ml of aliquot each in screw cap tubes. One of the tube with the bacterial culture was treated with niaziridin to a final concentration of 1µg/ml. Both the control and the treated tubes were incubated at 37°C for 4 hours. The cultures were then infected with λ phage (MOI=10) for 10minutes at 37°C (for adsorption) followed by centrifugation at 10000 RPM for 10 minutes at 4°C.
The supernatant and the pellets for both treated and untreated cultures were then compared for the phage titer by plating on top agar containing sensitive bacteria at different dilutions.

[3] = system: M.tuberculosis H37Rv (ATCC 27294); assay: Bioactivity enhancement of anti-tubercular drugs, radiometric BACTEC 460 TB system; assay type: cell-based, Mycobacterium tuberculosis
From the text: Since, the bioenhancer compound was able to enhance the activity of antibiotics against Gram (+) bacteria such as M.smegmatis, our subsequent interest was to test the compound against M.tuberculosis H37Rv (ATCC 27294) (Philipp et al 1996; Proc.Natl.Acad.Sci USA 93, 3132-3137), the causal organism of tuberculosis. To accomplish this we employed a radiometric assay using the BACTEC 460 TB system manufactured by M/S Becton Dickinson Ltd., USA. The antimycobacterial property of the drugs in combination with the bioenhancer was studied as per the recommended drug sensitivity protocol prescribed by the manufacturer (BACTEC 460 TB system: Product & Procedure Manual, MA 0029, 1996; Becton Dickinson Co., USA). Briefly the procedure is described below. • (a) The 12 B vials as provided by the manufacture were pre-tested prior to inoculation to establish the recommended CO2 atmosphere. […] After mixing thoroughly, 0.1 ml of this dilution was added into the control 12 B vial (without a drug). • (d) Biosafety precautions were taken as recommended by the manufacturer. • (e) Vials were tested daily in BACTEC 460 TB system for 12 days at approximately the same time each day as recommended by the manufacturer. The mycobacterial growth is expressed as Growth Index (GI) and compared to that of the control vials (antibiotic alone).

C.albicans = assay: Enhancement of anticandidial activity of clotrimazole (broth assay)
E.coli CA8000 = assay: Enhancement of bacterial transformation with pUC18 plasmid DNA, strain CA8000
E.coli DH5α = assay: Enhancement of bacterial transformation with pUC18 plasmid DNA, strain DH5α
Experimental: Overnight grown bacterial E.coli DH5α (Sambrook at al^28) cells were diluted to 10 folds in growth medium and treated with niaziridin @1-10µg/ml for 4 hours at 37°C in a shaker (200 RPM).
These log phase cells were then treated with calcium chloride to induce competence and then transformed with pUC18 plasmid DNA and plated on Luria agar plates containing 100µg/ml ampicillin.
The colonies thus appeared, on the plates for both treated and untreated cultures were scored.

[4] = Bioavailability test using gastro-intestinal epithelium (U-tube); assay type: in vitro ADME, goat; conditions: Vitamine B 12, in combination; Figure 3
From the text: Specially designed U-tubes of glass consisting of two components (opposite-L type) were used in which one open end of an L-shaped was tapered to fit within the end of the other L-tube (as described in US Patent # 6,410,059). The membrane of goat gut (initial part) was stretched and fixed to act as the barrier between the two ends such that by joining the two L-tubes, a U-tube was made. Sterile distilled water was then filled in both the sides to equal height/level. The antibiotic/compound was added to the donor tube (tapered) and through spectro-photometer, the transfer of molecule was observed using UV and visible absorption maxima of the respective molecules by taking the OD at defined wavelengths (264 nm for isoniazid).

E.coli (CA8000) = conditions: 6 ug/mL
M smegmatis (MC^2 155) = assay: Bioactivity enhancement of antibiotics (killing efficiency, broth assay) against M smegmatis; conditions: alone or with Niaziridin @ 1.0 µg/ml
B subtilis (MTCC121) = assay: Bioactivity enhancement of antibiotics (killing efficiency, broth assay) against B subtilis; conditions: alone or with Niaziridin @ 1.0 µg/ml
Staphylococcus aurues = conditions: in combination with 5-Methoxy hydnocarpin (5-MHC); cited from earlier work
[5] = cells pre treated with niaziridin at 1 ug/ml
[6] = cells pre treated with niaziridin at 10 ug/ml

CCOC(=S)NCc1ccc(OC2OC(C)C(O)C(O)C2O)cc1 (centres unmarked) [niazimicin]
hypotensive and bradycardiac effect [1]: produced hypotensive and bradycardiac effect

COC(=S)NCc1ccc(O[C@@H]2O[C@@H](C)[C@H](O)[C@@H](O)[C@H]2O)cc1 [niazinin A]
hypotensive and bradycardiac effect [1]: produced hypotensive and bradycardiac effect

niaziridin
Pellet (10^7pfu) ([2]; MOI 5): 7.7 10^7pfu | Supernatant (10^7pfu) ([2]; MOI 5): 7.7 10^7pfu | Pellet (10^7pfu) ([2]; MOI 10): 18.0 10^7pfu | Supernatant (10^7pfu) ([2]; MOI 10): 8.0 10^7pfu | enhancement of antimycobacterial activity of isoniazid (Growth Index) ([3]; in combination with isoniazid, Figure 2): able to enhance the antimycobacterial activity | enhancement of antimycobacterial activity of rifampicin (Growth Index) ([3]; in combination with rifampicin, Figure 1): able to enhance the antimycobacterial activity | enhancement of the antifungal activity of clotrimazole (C.albicans; in combination, observed only at 10ug/ml of the compound): 5-6 folds | Fold enhancement in DNA transformation (E.coli CA8000; [5]): 1.9 Fold | Titre (10^3) (E.coli CA8000; [5]): 8.30 10^3 | Fold enhancement in DNA transformation (E.coli CA8000; [6]): 5.5 Fold | Titre (10^3) (E.coli CA8000; [6]): 24.0 10^3 | Fold enhancement in DNA transformation (E.coli DH5α; [5]): 1.9 Fold | Titre (10^4) (E.coli DH5α; [5]): 16.0 10^4 | Fold enhancement in DNA transformation (E.coli DH5α; [6]): 2.3 Fold | Titre (10^4) (E.coli DH5α; [6]): 20.0 10^4 | uptake of nutrients through the intestinal gut membrane [4]: able to facilitate the uptake of nutrients like Vitamine B 12 through the intestinal gut membrane

niazinin B
hypotensive and bradycardiac effect [1]: produced hypotensive and bradycardiac effect

niaziminin B
hypotensive and bradycardiac effect [1]: produced hypotensive and bradycardiac effect

niaziminin A
hypotensive and bradycardiac effect [1]: produced hypotensive and bradycardiac effect

CC1(C)S[C@@H]2[C@H](NC(=O)[C@H](N)c3ccccc3)C(=O)N2[C@H]1C(=O)O [Amp, ampicillin]
% Survival (E.coli (CA8000)): 3.69% | Titre (M smegmatis (MC^2 155); Amp (0.1)): 1.0x10^8 | Titre (B subtilis (MTCC121); Amp (0.01)): 2.9x10^8

COc1ccc2cc3[n+](cc2c1OC)CCc1cc2c(cc1-3)OCO2 [berberine]
increase of antimicrobial activity of berberine (Staphylococcus aurues): 200 folds

CO[C@H]1/C=C/O[C@@]2(C)Oc3c(C)c(O)c4c(O)c(c(/C=N/N5CCN(C)CC5)c(O)c4c3C2=O)NC(=O)/C(C)=C\C=C\[C@H](C)[C@H](O)[C@@H](C)[C@@H](O)[C@@H](C)[C@H](OC(C)=O)[C@@H]1C [Rif, rifampicin]
Titre (M smegmatis (MC^2 155); Rif (0.05)): 1.3x10^7 | Titre (B subtilis (MTCC121); Rif (0.05)): 2.1x10^8

Clc1ccccc1C(c1ccccc1)(c1ccccc1)n1ccnc1 [Clotrimazole, clotrimazole]
Cfu / ml at 36 h (C.albicans; clotrimazole 0.5ug/ml, alone or with Niaziridin 10ug/ml, 36 h): 23.6 x 10^5 Cfu / ml

CN(C)[C@@H]1C(=O)C(C(N)=O)=C(O)[C@@]2(O)C(=O)C3=C(O)c4c(O)cccc4[C@@](C)(O)[C@H]3C[C@@H]12 [Tet, tetracycline]
Titre (M smegmatis (MC^2 155); Tet (2.0)): 1.2x10^8 | Titre (B subtilis (MTCC121); Tet (1.0)): 7.0x10^7

CCn1cc(C(=O)O)c(=O)c2ccc(C)nc21 [Nal, nalidixic acid]
Titre (M smegmatis (MC^2 155); Nal (1.0)): 3.7x10^8 | Titre (B subtilis (MTCC121); Nal (2.0)): 3.1x10^7
